≈ marks a conversion by molar mass, not a printed value.
Assays:
[1] = Solubility test (thermodynamic solubility, HPLC external standard); assay type: physicochemical; details: aqueous buffer, thermodynamic from solid; pH=7.4 phosphate buffer, 25° C., shaken 24 hours; read-out: Water Solubility (PH = 7.4)
Description: In this test, excess amount of test sample was added into pH=7.4 phosphate buffer. Ultrasonic was performed for 30 min until the drug no longer dissolved. The solution was continuously shaked for 24 hours at a constant temperature of 25° C. to achieve a thermodynamic equilibrium of compound, and then the solution was filtrated to get filtrate. Quantitative analysis of compound in filtrate using external standard method is performed according to “Appendix VD High Performance Liquid Chromatography, Part II of Pharmacopeia 2010,” and the sample thermodynamic solubility in pH=7.4 phosphate buffered solution was determined.
Agilent 1200 LC, Phenomen C18 column (4.6 mm*150 mm, […]), mobile phase: methanol:water (60:40), flow rate: 1 mL/min, column temperature: 25° C., wave length: 230 nm, injection volume: 10 μL
About 30 mg test compound was put in a 10 mL volumetric flask, about 8 mL pH=7.4 phosphate buffer was added and ultrasonic was performed for 30 min, and the solution was shaked for 24 hours in a shaker at a constant temperature of 25° C. The solution was settled for half an hour under 25° C., filtered with […] hydrophilic filter. The filtrate was used as test sample.
Standard compound AZD-2281 was put in a volumetric flask and dissolved in the mobile phase. The solutions were injected to measure the peak area. The retention time of AZD-2281 was about 8.5 min. The peak area was regressed against concentration to get a regression equation y=29.66x+302.82 (r=0.9997), and the linear range is 52.45˜83.92 µg/mL (see FIG. 1).
The test solution was injected for three times according to the above chromatographic conditions. The peak area was measured to calculate the corresponding concentration.
The procedures for testing the solubility of other compounds were similar with compound AZD-2281.

[2] = tested on: triple-negative phenotypic breast cancer cell line MDA-MB-436; test: Cell proliferation inhibition assay (SRB method); assay type: cell-based; details: Homo sapiens, 144 h; BRCA-deficient MDA-MB-436, six days, compound alone
Excerpt: Cell Proliferation Inhibition Assay
This assay was used to study the effect of PARP-1 inhibitor alone for tumor suppression. Breast cancer susceptibility genes BRCA1 and BRCA2 play an important role in homologous recombination DNA repair. BRCA-deficient cells represent homologous recombination repair defect, if PARP-mediated DNA repair is inhibited at the same time, DNA damage in cells may be increased, resulting in chromatin abnormality or even cell death.
BRCA-deficient breast cancer cell line MDA-MB-436 was selected for the assay, PARP inhibitor was used alone to evaluate its damage effect on cells. The inhibition effect of the compound was expressed by IC50.
Breast cancer cell line MDA-MB-436 in good growth condition seeded in 96-well plates (5000 cells/well or 3000 cells/well, respectively), and cultured overnight in an incubator at 37° C., 5% CO2 with saturated humidity. On the next day, samples with a series of concentration gradients were added and cultured for another six days. SRB method was used to detect the samples' inhibition on cell growth and calculate their growth inhibition rate.

[3] = tested on: occlusion of the MCA in mice; details: intracerebroventricular administration; cited from earlier work
[4] = tested on: rat model of focal cerebral ischemia; details: i.p. 10 mg/kg two hours prior to and two hours after the initiation of ischemia; cited from earlier work

Row | Compound | solubility at 24 h [1] | IC50 [2] | also measured
1 | O=C(c1cc(Cc2n[nH]c(=O)c3ccccc23)ccc1F)N1CCN(C(=O)C2CC2)CC1 [AZD-2281, reference compound] | 531 µg/mL (≈ 1220 µM) | 4.38 µM | –
2 | NC(=O)c1cccc(N)c1 [Compound 3-AB, 3-aminobenzamide] | – | – | decrease in infarct volume [3]: 47%
3 | C[C@@H](C(=O)N1CCN(C(=O)c2cc(Oc3n[nH]c(=O)c4ccccc34)ccc2F)CC1)c1ccccc1 [Compound 49, (R)-4-(4-fluoro-3-(4-(2-phenylpropionyl)piperazine-1-carbonyl)phenoxy)-2H-phthalazin-1-one] | – | 4.21 µM | –
4 | CC(C)(C)C(=O)N1CCN(C(=O)c2cc(Oc3n[nH]c(=O)c4ccccc34)ccc2F)CC1 [Compound 55, 4-(4-fluoro-3-(4-pivaloylpiperazine-1-carbonyl)phenoxy)-2H-phthalazin-1-one] | 602 µg/mL (≈ 1330 µM) | – | –
5 | CCC(CC)C(=O)N1CCN(C(=O)c2cc(Oc3n[nH]c(=O)c4ccccc34)ccc2F)CC1 [Compound 61, 4-(3-(4-(2-ethylbutyryl)piperazine-1-carbonyl)-4-fluorophenoxy)-2H-phthalazin-1-one] | – | 1.98 µM | –
6 | CC(C)N1CCN(C(=O)c2cc(Oc3n[nH]c(=O)c4ccccc34)ccc2F)CC1 [Compound 79, 4-(4-fluoro-3-(4-isopropyl-1-carbonyl)phenoxy)-2H-phthalazin-1-one] | 650 µg/mL (≈ 1580 µM) | – | –
7 | O=C(c1cc(Oc2n[nH]c(=O)c3ccccc23)ccc1F)N1CCN(C(=O)N2CCCCC2)CC1 [Compound 85, 4-(4-fluoro-3-(4-(piperidine-1-carbonyl)piperazine-1-carbonyl)phenoxy)-2H-phthalazin-1-one] | – | 3.35 µM | –
8 | O=C(c1cc(Oc2n[nH]c(=O)c3ccccc23)ccc1F)N1CCN(C(=O)c2ccccc2[N+](=O)[O-])CC1 [Compound 88, 4-(4-fluoro-3-(4-(2-nitrobenzoyl)piperazine-1-carbonyl)phenoxy)-2H-phthalazin-1-one] | – | 3.28 µM | –
9 | O=C(c1cc(Oc2n[nH]c(=O)c3ccccc23)ccc1F)N1CCN(C(=O)C2CCCCC2)CC1 [Compound 99] | – | 2.63 µM | –
10 | CCC(=O)N1CCN(C(=O)c2cc(Oc3n[nH]c(=O)c4ccccc34)ccc2F)CC1 [Compound 100, 4-(4-fluoro-3-(4-propionylpiperazine-1-carbonyl)phenoxy)2H-phthalazin-1-one] | 660 µg/mL (≈ 1560 µM) | 4.12 µM | –
11 | O=C(c1cc(Oc2n[nH]c(=O)c3ccccc23)ccc1F)N1CCN(C(=O)C2CCC(F)(F)CC2)CC1 [Compound 107, 4-(3-(4-(4,4-difluorocyclohexanecarbonyl)piperazine-1-carbonyl)-4-fluorophenoxy)2H-phthalazin-1-one] | – | 3.17 µM | –
12 | CN(C)C1(C(=O)N2CCN(C(=O)c3cc(Oc4n[nH]c(=O)c5ccccc45)ccc3F)CC2)CC1 [Compound 124, 4-(3-(4-(1-(dimethylamino)cyclopropanecarbonyl)piperazine-1-carbonyl)-4-fluorophenoxy)2H-phthalazin-1-one] | 1440 µg/mL (≈ 3000 µM) | 3.7 µM | –
13 | NC1(C(=O)N2CCN(C(=O)c3cc(Oc4n[nH]c(=O)c5ccccc45)ccc3F)CC2)CC1 [Compound 125, 4-(3-(4-(1-aminocyclopropanecarbonyl)piperazine-1-carbonyl)-4-fluorophenoxy)2H-phthalazin-1-one] | 671 µg/mL (≈ 1490 µM) | – | –
14 | CNC1(C(=O)N2CCN(C(=O)c3cc(Oc4n[nH]c(=O)c5ccccc45)ccc3F)CC2)CCC1 [Compound 127, 4-(4-fluoro-3-(4-(1-(methylamino)cyclobutanecarbonyl)piperazine-1-carbonyl)phenoxy)2H-phthalazin-1-one] | 630 µg/mL (≈ 1310 µM) | – | –
15 | C[C@]1(C(=O)N2CCN(C(=O)c3cc(Oc4n[nH]c(=O)c5ccccc45)ccc3F)CC2)CCCN1 [Compound 130, (R)-4-(4-fluoro-3-(4-(2-methylpyrrolidine-2-carbonyl)piperazine-1-carbonyl)phenoxy)-2H-phthalazin-1-one] | – | 3.85 µM | –
16 | O=C1NCCc2c(OCCCCN3CCCCC3)cccc21 [DPQ, 3,4-dihydro-5-[4-(1-piperidinyl)butoxy]-1(2H)-isoquinolinone] | – | – | reduction in infarct volume [4]: 54%

From patent US9187430B2, “Poly (ADP-ribose) polymerase inhibitor” (CHENGDU DI'AO PHARMACEUTICAL GROUP CO., LTD., priority 2011, dated 2015)
